Data reported in patent publication US20220009909A1, “ADAMTS INHIBITORS, PREPARATION METHODS AND MEDICINAL USES THEREOF” (Eternity Bioscience Inc., priority 2020, published 2022).

Assays:
[1] = system: mouse femoral head cartilage; assay: Mouse cartilage explant assay (IL-1α induced GAG release); type: cell-based; conditions: inhibition of GAG release, IL-1α 1 ng/mL, 72 hours; for inhibition at 2 µM: compound 2 μM, read-out: Inhibiton % at 2 μM; for inhibition at 20 µM: compound 20 μM
Procedure: In this assay, fresh mouse femoral head cartilage was treated with IL-1a protein (Sigma-Aldrich, 12778) in culture media, which induced the cartilage catabolism. Then, the GAGs attached to the cleaved aggrecan fragments (released in the media) and the GAGs attached to the intact aggrecan were measured by dimethylmethylene blue dye in the Glycosaminoglycans Assay Kit (Chondrex, 6022).
Femoral head cartilage samples were isolated from mice (25 days old, male, C57BL/6, from Charles River Lab) and put into 2.0 mL tubes filled-up with media (DMEM, 10% FBS, 4 mM Glutamine, penicillin-streptomycin, 20 mM HEPES). 200 μl of media without FBS was added to each well of a 48-well plate, and one piece of cartilage was transferred to a well in the plate. Then the media was aspirated, and compounds and IL-1α protein were added to the plate in a total volume of 400 μl of fresh media without FBS. The final concentration of IL-1α was 1 ng/mL. The plate was incubated at 37° C. for 72 hours in a humidified incubator with 5% CO2 supply.
The supernatant was transferred to a 1.5 mL tube and kept at −20° C. Each cartilage sample was transferred to another 1.5 mL tube containing 400 μl of freshly made papain solution. The papain solution contained 125 μg/mL papain (Sigma-Aldrich, P3125), 0.1 M sodium acetate (Sigma-Aldrich. S7899), pH 5.5 and 5 mM EDTA and 5 mM L-cysteine-HCl (Sigma-Aldrich, C7880). The cartilage samples were kept rocking in a 60° C. water bath for 24 hours.
The lysates were vortexed for 10 seconds and spinned at 10,000 rpm for 2 minutes. Both the supernatant and the lysate samples were diluted with PBS and mixed with 100 μL of dye from the Glycosaminoglycans Assay Kit. The optical density from each well was determined with a TECAN plate reader set to a wavelength of 525 nm,
The concentrations of GAGs in the supernatant and lysates were determined based on the standard curve with a dose range of chondroitin sulfate provided in the kit. The percentage of GAG release was calculated as the following: […]
The test compound effect was expressed as the percent of inhibition using the following formula: […]

[2] = biological target: T1, ADAMTS-5 recombinant protein (Homo sapiens, UniProt Q9UNA0); assay: Aggrecan-IGD enzymatic assay for ADAMTS-5 inhibitors (ARGSVIL-peptide ELISA); type: biochemical; conditions: aggrecan-IGD protein substrate, 37° C. 45 minutes
T1 construct: purchased R&D Systems 2198-AD
T1 sequence (Q9UNA0 262-622 limits assumed): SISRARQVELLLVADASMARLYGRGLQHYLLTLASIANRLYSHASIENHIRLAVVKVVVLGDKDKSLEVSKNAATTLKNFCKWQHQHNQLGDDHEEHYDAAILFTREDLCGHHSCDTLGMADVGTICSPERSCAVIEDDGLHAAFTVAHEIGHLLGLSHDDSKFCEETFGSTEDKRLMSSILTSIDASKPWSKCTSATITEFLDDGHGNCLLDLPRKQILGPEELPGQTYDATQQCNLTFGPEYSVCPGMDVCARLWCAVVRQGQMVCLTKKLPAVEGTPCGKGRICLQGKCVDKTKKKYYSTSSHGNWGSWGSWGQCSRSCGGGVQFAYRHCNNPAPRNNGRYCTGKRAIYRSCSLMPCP
Procedure: In this assay, the enzymatic activity of recombinant ADAMTS-5 protein (2198-AD, R&D Systems) was assayed with a protein substrate, the aggrecan IGD protein. The aggrecan IGD protein is a polypeptide connecting human aggrecan globular domains 1 and 2 (T331-G458) expressed in E. coli with a C-terminal His-tag (BIOTEZ, 30411000). The enzymatic product ARGSVIL-peptide was detected using an ELISA kit from BioTEZ (30510111). An assay buffer containing 50 mM HEPES pH 7.5, 100 mM NaCl, 5 mM CaCl2, 0.1% CHAPS and 5% Glycerol was prepared. Recombinant ADAMTS-5 protein was diluted to 0.3 nM in the assay buffer. Ten μL of buffer and 10 μl of compound solution was transferred to each well of a 96-well plate and incubated at room temperature for 15 minutes. Substrate aggrecan-IGD was diluted to 100 nM with the assay buffer and 20 μl was added to each well. The plate was incubated at 37° C. for 45 minutes. After incubation, the newly generated epitope ARGSVIL-peptides were measured using the Aggrecanase Activity ELISA Assay Kit following the manufacturer's instructions. Then, 100 μl of stop solution was added and the absorbance of each well was read at 450 nm, using […] as reference on a TECAN plate reader.
A standard curve of the ELISA assay was generated in GraphPad Prism using Sigmoidal 4PL function and the corresponding peptide concentrations were calculated based on the standard curve. The IC50 values were calculated using function “log (inhibitor) vs. response-Variable slope (four parameters)”. (See Table 2).

[3] = biological target: T2, ADAMTS-4 recombinant protein (Homo sapiens, UniProt O75173); assay: In vitro fluorescence (FRET-peptide) enzymatic assay of ADAMTS-4 activity; type: biochemical; conditions: FRET peptide substrate 15 μM, 10 nM enzyme, 37° C. 3 hours
T2 construct: purchased R&D Systems 4307-AD
T2 sequence (O75173 213-685 limits assumed): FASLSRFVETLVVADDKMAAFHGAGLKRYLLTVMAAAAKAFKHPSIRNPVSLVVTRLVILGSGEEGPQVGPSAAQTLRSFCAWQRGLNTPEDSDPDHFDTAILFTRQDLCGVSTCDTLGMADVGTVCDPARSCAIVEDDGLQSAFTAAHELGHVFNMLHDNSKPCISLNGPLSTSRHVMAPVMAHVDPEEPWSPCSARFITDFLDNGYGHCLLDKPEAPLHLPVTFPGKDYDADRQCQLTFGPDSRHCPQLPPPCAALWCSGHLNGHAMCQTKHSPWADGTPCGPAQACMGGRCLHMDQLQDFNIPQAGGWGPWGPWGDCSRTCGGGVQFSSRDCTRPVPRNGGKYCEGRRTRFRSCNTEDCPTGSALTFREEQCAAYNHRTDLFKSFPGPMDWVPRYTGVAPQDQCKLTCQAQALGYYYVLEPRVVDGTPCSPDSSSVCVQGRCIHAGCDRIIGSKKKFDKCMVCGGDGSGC
Procedure: (§1) A FRET (fluorescence resonance energy transfer) peptide was cleaved by recombinant ADAMTS-4 or ADAMTS-5 proteins into two separate fragments resulting in an increase of fluorescence signal which was quantified. The peptide was 5-FAM-TEGEARGSVILLK (5-TAMRA)K—NH2, customized from ANASPEC. ADAMTS-4 recombinant protein (4307-AD) and ADAMTS-5 recombinant protein (2198-AD) were purchased from R&D Systems.
(§2) An assay buffer containing 50 mM HEPES pH 7.5, 100 mM NaCl, 5 mM CaCl2, 0.1% CHAPS and 5% Glycerol was prepared. A volume of 2.5 μl of compound in the assay buffer was dispensed to a 384-well plate, and 2.5 μl of ADAMTS-4 or ADAMTS-5 protein (final concentration in the reaction was 10 nM) was added. The compounds and proteins were pre-incubated at room temperature for 15 minutes. Then, 5 μl of substrate was added to each well. The final substrate concentrations for ADAMTS-4 and ADAMTS-5 were 15 μM and 8 μM, respectively. The fluorescence signal in each well was determined, after incubation at 37° C. for 3 hours, on a TECAN plate reader (Excitation, 490 nm; Emission, 520 nm).
(§3) The data was inputted into GraphPad Prism, and the IC50 values were calculated using function “log (inhibitor) vs. response-Variable slope (four parameters)”, (See Table 1)

[4] = biological target: T1, ADAMTS-5 recombinant protein; assay: In vitro fluorescence (FRET-peptide) enzymatic assay of ADAMTS-5 activity; type: biochemical; conditions: FRET peptide substrate 8 μM, 10 nM enzyme, 37° C. 3 hours
Procedure: as §1, §2, §3

| IC50 [2] [nM] | IC50 [3] [nM] | IC50 [4] [nM] | SMILES | inhibition at 2 µM [1] [%] | inhibition at 20 µM [1] [%] |
| --- | --- | --- | --- | --- | --- |
| 17 | 34 | 9 | C[C@@H]1c2cc(Cl)c(Cl)cc2CN1C(=O)NC[C@@]1(C2CC2)NC(=O)NC1=O [Example 2-1, (R)-5,6-dichloro-N—(((R)-4-cyclopropyl-2,5-dioxoimidazolidin-4-yl)methyl)-1-methylisoindoline-2-carboxamide] | 14 | 86 |
| 26 | 16 | 23 | O=C1NC(=O)[C@](CNC(=O)N2Cc3cc(Cl)c(Cl)cc3C2)(C2CC2)N1 [Example 1-2, (R)-5,6-dichloro-N-((4-cyclopropyl-2,5-dioxoimidazolidin-4-yl)methyl)isoindoline-2-carboxamide] | 47 | 87 |
| 17 | 12 | 8 | C[C@@H]1c2cc(C(F)(F)F)c(Cl)cc2CN1C(=O)NC[C@@]1(C2CC2)NC(=O)NC1=O [Example 8-1, (R)-5-chloro-N—(((R)-4-cyclopropyl-2,5-dioxoimidazolidin-4-yl)methyl)-1-methyl-6-(trifluoromethyl)isoindoline-2-carboxamide] | 61 | 95 |

The remaining lines, values behind:

| SMILES | IC50 [2] [nM] | IC50 [3] [nM] | IC50 [4] [nM] | inhibition at 2 µM [1] [%] | inhibition at 20 µM [1] [%] |
| --- | --- | --- | --- | --- | --- |
| O=C1NC(=O)[C@](CNC(=O)N2Cc3cc(Cl)c(C(F)(F)F)cc3C2)(C2CC2)N1 [Example 3, (R)-5-chloro-N-((4-cyclopropyl-2,5-dioxoimidazolidin-4-yl)methyl)-6-(trifluoromethyl)isoindoline-2-carboxamide] | 40 | 39 | 40 | – | – |
| O=C1NC(=O)C(CNC(=O)N2Cc3ccc(C(F)(F)F)cc3C2)(C2CC2)N1 (stereo not shown) [Example 4, N-((4-cyclopropyl-2,5-dioxoimidazolidin-4-yl)methyl)-5-(trifluoromethyl)isoindoline-2-carboxamide] | 140 | 280 | 100 | 0 | 94 |
| [2H]C1([2H])c2cc(Cl)c(Cl)cc2C(C)N1C(=O)NC[C@@]1(C2CC2)NC(=O)NC1=O (stereo partly drawn) [Example 11, 5,6-dichloro-N—(((R)-4-cyclopropyl-2,5-dioxoimidazolidin-4-yl)methyl)-1-methylisoindoline-3,3-d2-2-carboxamide] | – | 92 | 30 | – | – |
| CC1c2cc(C(F)(F)F)c(Cl)cc2CN1C(=O)NC[C@@]1(C2CC2)NC(=O)NC1=O (stereo partly drawn) [Example 8, 5-chloro-N—(((R)-4-cyclopropyl-2,5-dioxoimidazolidin-4-yl)methyl)-1-methyl-6-(trifluoromethyl)isoindoline-2-carboxamide] | 34 | 33 | 22 | – | – |
| [2H]C1([2H])c2cc(Cl)c(C(F)(F)F)cc2C(C)N1C(=O)NC[C@@]1(C2CC2)NC(=O)NC1=O (stereo partly drawn) [Example 9, 5-chloro-N—(((R)-4-cyclopropyl-2,5-dioxoimidazolidin-4-yl)methyl)-1-methyl-6-(trifluoromethyl)isoindoline-3,3-d2-2-carboxamide] | 34 | 53 | 30 | – | – |
| CC1c2cc(Cl)c(Cl)cc2CN1C(=O)NC[C@@]1(C2CC2)NC(=O)NC1=O (stereo partly drawn) [Example 2, 5,6-dichloro-N—(((R)-4-cyclopropyl-2,5-dioxoimidazolidin-4-yl)methyl)-1-methylisoindoline-2-carboxamide] | 44 | 42 | 36 | – | – |
| O=C1NC(=O)C(CNC(=O)N2Cc3cc(Cl)c(Cl)cc3C2)(C2CC2)N1 (stereo not shown) [Example 1, 5,6-dichloro-N-((4-cyclopropyl-2,5-dioxoimidazolidin-4-yl)methyl)isoindoline-2-carboxamide] | 60 | 31 | 38 | – | – |
